These results are taken from US20230159469A1, “NOVEL PHTHALAZINE DERIVATIVE HAVING ECTONUCLOEOTIDE PYROPHOSPHATASE/PHOSPHODIESTE RASE INHIBITORY ACTIVITY, AND USE THEREOF” (TXINNO BIOSCIENCE INC., priority 2020, published 2023).

SMILES strings stand for the structures. Structures can show the parent of a compound that is named as a salt.

For this test, the target named is T1, human recombinant ENPP1 (Homo sapiens, UniProt P22413).
T1 construct: purchased R & D systems
T1 sequence (P22413 1-925): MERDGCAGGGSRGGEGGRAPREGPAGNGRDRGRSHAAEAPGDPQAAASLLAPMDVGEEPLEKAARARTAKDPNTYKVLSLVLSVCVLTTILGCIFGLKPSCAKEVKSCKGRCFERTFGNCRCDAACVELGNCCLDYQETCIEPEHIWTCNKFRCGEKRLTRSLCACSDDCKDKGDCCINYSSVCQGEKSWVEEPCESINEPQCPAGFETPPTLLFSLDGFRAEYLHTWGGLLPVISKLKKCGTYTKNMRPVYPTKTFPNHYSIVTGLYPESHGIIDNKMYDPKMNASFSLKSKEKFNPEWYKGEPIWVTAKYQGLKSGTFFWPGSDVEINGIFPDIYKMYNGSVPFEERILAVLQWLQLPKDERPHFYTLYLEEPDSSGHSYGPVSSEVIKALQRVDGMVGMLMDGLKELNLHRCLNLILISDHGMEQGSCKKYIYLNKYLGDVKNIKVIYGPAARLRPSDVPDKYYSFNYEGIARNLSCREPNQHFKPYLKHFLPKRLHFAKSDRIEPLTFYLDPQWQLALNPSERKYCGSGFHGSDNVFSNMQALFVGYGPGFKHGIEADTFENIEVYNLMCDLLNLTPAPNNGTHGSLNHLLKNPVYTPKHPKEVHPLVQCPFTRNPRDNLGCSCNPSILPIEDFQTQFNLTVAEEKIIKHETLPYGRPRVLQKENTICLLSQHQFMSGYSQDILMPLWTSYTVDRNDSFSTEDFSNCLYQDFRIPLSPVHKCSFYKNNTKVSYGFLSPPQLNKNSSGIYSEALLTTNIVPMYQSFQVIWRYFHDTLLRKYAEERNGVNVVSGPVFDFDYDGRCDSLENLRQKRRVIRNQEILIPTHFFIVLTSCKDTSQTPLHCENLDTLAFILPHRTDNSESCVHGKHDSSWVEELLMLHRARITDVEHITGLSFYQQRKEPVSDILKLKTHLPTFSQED
Briefly: ENPP1 enzyme assay with cGAMP substrate (AMP-Glo luminescence). Particulars: human recombinant ENPP1 3 ng/reaction, cGAMP 5 μM, 37° C. 90 minutes, read-out: Enzymatic activity (ENPP1 IC50). It counts as biochemical. A digest of the protocol:
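Human ENPP1 hydrolysis of 5 μM cGAMP was run for 90 min at 37° C in 50 mM Tris pH 8.5, 250 mM NaCl, 0.5 mM CaCl2, 1 μM ZnCl2, 5% glycerol, 1% DMSO. AMP product was quantified by AMP-Glo luminescence; IC50 came from 3-parameter fits of % residual activity, averaged over at least two runs.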
One may read the IC50 as the concentration that inhibits the measured activity by half. Regarding `COc1cc2c(Cc3ccc4c(c3)CCN4S(=O)(=O)NC(=O)OC(C)(C)C)nn(C)c(=O)c2cc1OC` [Example 177, tert-butyl (5-((6,7-dimethoxy-3-methyl-4-oxo-3,4-dihydrophthalazin-1-yl)methyl)indolin-1-yl)sulfonyl carbamate], the half-inhibitory concentration (IC50) is more than 10 µM. `CNc1ccc(Cc2n[nH]c(=O)c3cc(OC)c(OC)cc23)cc1` [Example 163, 6,7-dimethoxy-4-(4-(methylamino)benzyl)phthalazin-1(2H) -one hydrochloride]: the concentration for half-maximal inhibition (IC50) is more than 10 µM. As to `COc1cc2c(-c3ccc(CN(C)S(N)(=O)=O)c(F)c3F)n[nH]c(=O)c2cc1OC` [Compound No. 117, N-(4-(6,7-dimethoxy-4-oxo-3,4-dihydrophthalazin-1-yl)-2,3-difluorobenzyl)-N-methyl sulfamide hydrochloride], the half-maximal inhibitory concentration (IC50) is more than 10 µM. Under `C[C@@H](N)c1ccc(-c2n[nH]c(=O)c3ccccc23)cc1` [Compound No. 51, (R)-4-(4-(1-aminoethyl)phenyl)phthalazin-1(2H)-one hydrochloride] stands less than 1 µM; under `CC(C)(C)OC(=O)NS(=O)(=O)N1CCc2cc(-c3n[nH]c(=O)c4ccccc34)ccc2C1` [Compound No. 83, tert-butyl ((6-(4-oxo-3,4-dihydrophthalazin-1-yl)-3,4-dihydroisoquinolin-2(1H)-yl)sulfonyl)carbamate], more than 10 µM.

As for `NCc1cccc(-c2n[nH]c(=O)c3ccccc23)c1` [Compound No. 33, 4-(3-(aminomethyl)phenyl)phthalazin-1(2H)-one hydrochloride], the concentration for half-maximal inhibition (IC50) was more than 10 µM.

With `COc1cc2c(-c3ccc(CNC(=O)OC(C)(C)C)cc3)nn(C)c(=O)c2cc1OC` [Compound No. 20, tert-butyl (4-(6,7-dimethoxy-3-methyl-4-oxo-3,4-dihydrophthalazin-1-yl)benzyl)carbamate], the IC50 was more than 10 µM.

Take `Cn1nc(-c2ccc(NS(N)(=O)=O)cc2)c2ccccc2c1=O` [Compound No. 92, N-(4-(3-methyl-4-oxo-3,4-dihydrophthalazin-1-yl)phenyl)sulfamide]: the IC50 is less than 1 µM. Take `O=c1[nH]nc(-c2ccc(CNS(=O)(=O)c3cccs3)cc2)c2ccccc12` [Example 198, N-(4-(4-oxo-3,4-dihydrophthalazin-1-yl)benzyl)thiophene-2-sulfonamide]: the IC50 was more than 10 µM.

Take `COc1ccc2c(=O)n(C)nc(-c3ccc(CNS(N)(=O)=O)cc3)c2c1` [Compound No. 105, N-(4-(7-methoxy-3-methyl-4-oxo-3,4-dihydrophthalazin-1-yl)benzyl)sulfamide hydrochloride]: the IC50 lay in the range of 1 to 10 µM. Under `CS(=O)(=O)NCc1ccc(-c2n[nH]c(=O)c3ccccc23)cc1` [Example 195, N-(4-(4-oxo-3,4-dihydrophthalazin-1-yl)benzyl)methanesulfonamide] stands more than 10 µM; under `NS(=O)(=O)Nc1cccc(-c2nn(Cc3ccccc3)c(=O)c3ccccc23)c1` [Compound No. 89, N-(3-(3-benzyl-4-oxo-3,4-dihydrophthalazin-1-yl)phenyl)sulfamide hydrochloride], less than 1 µM. Take `CC(C)(C)OC(=O)Nc1cccc(-c2nn(Cc3ccccc3)c(=O)c3ccccc23)c1` [Compound No. 4, tert-butyl (3(3-benzyl-4-oxo-3,4-dihydrophthalazin-1-yl)phenyl)carbamate]: the IC50 was more than 10 µM.

As to `COc1cc2c(Cc3ccc4c(c3)CCN4)n[nH]c(=O)c2cc1OC` [Example 165, 4-(indolin-5-yl-methyl)-6,7-dimethoxyphthalazin-1(2H)-one hydrochloride], the IC50 is more than 10 µM.

With `NCc1cccc(-c2nn(Cc3ccccc3)c(=O)c3ccccc23)c1` [Compound No. 35, 4-(3-(aminomethyl)phenyl)-2-benzylphthalazin-1(2H)-one hydrochloride], the IC50 was more than 10 µM. Turning to `COc1ccc2c(-c3ccc(CNS(N)(=O)=O)cc3)nn(C)c(=O)c2c1` [Compound No. 107, N-(4-(6-methoxy-3-methyl-4-oxo-3,4-dihydrophthalazin-1-yl)benzyl)sulfamide hydrochloride], the IC50 was more than 10 µM. For `NCc1ccc(-c2nn(Cc3ccc(F)cc3)c(=O)c3ccccc23)cc1` [Compound No. 42, 4-(4-(aminomethyl)phenyl)-2-(4-fluorobenzyl)phthalazin-1(2H)-one hydrochloride], the IC50 is 1 to 10 µM. Regarding `CC(C)(C)OC(=O)NS(=O)(=O)Nc1cccc(-c2nn(Cc3ccccc3)c(=O)c3ccccc23)c1` [Compound No. 62, tert-butyl (N-(3-(3-benzyl-4-oxo-3,4-dihydrophthalazin-1-yl)phenyl)sulfamoyl)carbamate], the 50% inhibitory concentration (IC50) is more than 10 µM. For the compound `COc1ccc2c(-c3ccc(CN)cc3)nn(C)c(=O)c2c1` [Compound No. 46, 4-(4-(aminomethyl)phenyl)-7-methoxy-2-methylphthalazin-1(2H)-one hydrochloride], the IC50 was more than 10 µM. As for `COc1cc2c(-c3ccc(CN(C)S(N)(=O)=O)cc3F)n[nH]c(=O)c2cc1OC` [Compound No. 114, N-(4-(6,7-dimethoxy-4-oxo-3,4-dihydrophthalazin-1-yl)-3-fluorobenzyl)-N-methyl sulfamide hydrochloride], the IC50 lay within 1 to 10 µM. In the case of `COc1ccc2c(=O)n(C)nc(-c3ccc(CNS(=O)(=O)NC(=O)OC(C)(C)C)cc3)c2c1` [Compound No. 73, tert-butyl N-(4-(7-methoxy-3-methyl-4-oxo-3,4-dihydrophthalazin-1-yl)benzyl)sulfamoyl carbamate], the IC50 is more than 10 µM. On to `COc1cc2c(Cc3cccc(NS(N)(=O)=O)c3)n[nH]c(=O)c2cc1OC` [Example 178, (N-(3-((6,7-dimethoxy-4-oxo-3,4-dihydrophthalazin-1-yl)methyl)phenyl)sulfamide hydrochloride], for which the half-maximal inhibitory concentration (IC50) is more than 10 µM. Turning to `COc1cc2c(-c3cccc(CNS(N)(=O)=O)c3)nn(C)c(=O)c2cc1OC` [Compound No. 110, N-(3-(6,7-dimethoxy-3-methyl-4-oxo-3,4-dihydrophthalazin-1-yl)-benzyl) sulfamide], the IC50 was in the range of 1 to 10 µM. As for `COc1cc2c(Cc3ccc4c(c3)CCN4C(=O)OC(C)(C)C)nn(C)c(=O)c2cc1OC` [Example 155], the IC50 is more than 10 µM. Turning to `NS(=O)(=O)NCc1ccc(-c2nn(-c3ccccc3)c(=O)c3ccccc23)cc1` [Compound No. 100, N-(4-(4-oxo-3-phenyl-3,4-dihydrophthalazin-1-yl)benzyl)sulfamide hydrochloride], the IC50 is less than 1 µM. Under `COc1cc2c(Cc3ccc4c(c3)CCN4S(N)(=O)=O)nn(C)c(=O)c2cc1OC` [Example 188, 5-((6,7-dimethoxy-3-methyl-4-oxo-3,4-dihydrophthalazin-1-yl)methyl)indoline-1-sulfonamide hydrochloride] stands less than 1 µM; under `NCC1CCN(c2n[nH]c(=O)c3ccccc23)CC1` [Compound No. 134, 4-(4-(aminomethyl)piperidin-1-yl)phthalazin-1(2H)-one hydrochloride], 1 to 10 µM; under `Cn1nc(-c2ccc(CNC(=O)OC(C)(C)C)cc2)c2ccccc2c1=O` [Compound No. 9], more than 10 µM. Under `CN(Cc1ccc(-c2n[nH]c(=O)c3ccccc23)cc1)S(N)(=O)=O` [Compound No. 127, N-methyl-N-(4-(4-oxo-3,4-dihydrophthalazin-1-yl)benzyl)sulfamide] stands less than 1 µM.

As to `CC(C)(C)OC(=O)NCC1CCN(c2n[nH]c(=O)c3ccccc23)CC1` [Compound No. 132, tert-butyl ((1-(4-oxo-3,4-dihydrophthalazin-1-yl)piperidin-4-yl)methyl)carbamate], the half-maximal inhibitory concentration (IC50) is more than 10 µM.

As to `Cn1nc(-c2ccc3c(c2)CCN(S(N)(=O)=O)C3)c2ccccc2c1=O` [Compound No. 129, 6-(3-methyl-4-oxo-3,4-dihydrophthalazin-1-yl)-3,4-dihydroisoquinoline-2(1H)-sulfonamide hydrochloride], the IC50 lay in the range of 1 to 10 µM. `CC(C)(C)OC(=O)Nc1cccc(-c2n[nH]c(=O)c3ccccc23)c1` [Compound No. 2, tert-butyl (3-(4-oxo-3,4-dihydrophthalazin-1-yl)phenyl)carbamate]: the IC50 is more than 10 µM.

As for `COc1cc2c(Cc3ccc4c(c3)CCN4S(=O)(=O)NC(=O)OC(C)(C)C)n[nH]c(=O)c2cc1OC` [Example 176, tert-butyl (5-((6,7-dimethoxy-4-oxo-3,4-dihydrophthalazin-1-yl)methyl)indolin-1-yl)sulfonyl carbamate], the IC50 is more than 10 µM.
